Assay results: patent US7030087B2, “Synthetic approach to designed chemical structures” (priority 1996, dated 2006)

Key:
[1] = system: endothelial cells (FBHEC, HUVEC); assay: Endothelial cell proliferation assay of βpeptides 1–24 (FIG. 7); assay type: cell-based
Method: FIG. […] FIG. 7A provides ^3H-Thymidine incorporation data for FBHEC cells and FIG. 7B provides ^3H-Thymidine incorporation data for HUVEC cells.
βpeptides 1–24 were tested in an endothelial cell proliferation assay using ^3H-thymidine incorporation. […]

ICAM-1 = ICAM-1 expression on endothelial cells (immunofluorescence, FACScan); assay type: cell-based, human; settings: for bFGF mediated downregulation of ICAM-1 (in words): 10 ng/ml bFGF for 3 days, 100 μg/ml added simultaneously
Method: In a first series of experiments, PF4 and βpep peptides were tested for their ability to prevent bFGF (fibroblast growth factor) mediated downregulation of ICAM-1. […] Simultaneously 100 μg/ml of each PF4, βpep-14, βpep-16, or medium was added. Mean ICAM-1 fluorescence intensity values were determined.
(§1) Since the in vivo situation of tumor associated EC involves the low expression or even absence of ICAM-1, the next set of experiments aimed to study the ability to reinduce ICAM-I expression after bFBF preincubation. […] In these experiments, HUVEC were pretreated for 3 days with bFGF, subsequently PF4 was added for 3 days and, where indicated in the last 16 hours of culture 4 ng/ml TNFα was added. Human umbilical vein derived endothelial cells (HUVEC) were harvested from normal human umbilical cords by perfusion with 0.125% trypsin/EDTA as described previously. Cells were cultured in fibronectin (FN) coated tissue culture flasks in culture medium (RPMI-1640 with 20% human serum (HS), supplemented with 2 mM glutamine and 100 U/ml penicillin and 0.1 mg/ml streptomycin). Immunofluorescence using indirect PE-conjugated reagents required three separate incubations. 1×10^5 EC were fixed for 1 hour in 1% paraformaldehyde, resuspended in 20 μl appropriately diluted Mab and incubated for 1 hour on ice. Subsequently, cells were washed two times in PBS/BSA (0.1%) and incubated for another 30 minutes with biotinylated rabbit-anti-mouse Ig (Dako, Glostrup, Denmark). After another 2 washings, cells were incubated with streptavidin-phycoerythrin conjugate (Dako). Stained cells were analyzed on a FACScan flowcytometer. Data analysis was performed using PCLysys software (Becton Dickinson, Mountain View, Calif.). Statistical significance of observed differences was determined using the Student's t-test.
The energy of EC to stimulation with inflammatory cytokines was the subject of a next series of experiments. For these experiments, HUVEC (human vascular endothelial cells) were pretreated with 10 ng/ml bFGF for 3 days. Subsequently, cells are subcultured for 3 days with […] in the presence of PF4. For the last 16 hours of the culture 4 ng/ml TNFα was added to induce upregulation of ICAM-1. […] The regulation of ICAM-1 at the protein level was confirmed in Northern blot analysis for detection of ICAM-1 message. In these experiments, HUVEC were cultured for 3 days with bFGF and treated for the last 4 and 24 hours with PF4 (100 μg/ml). TNFα was added 2 hours before isolation of RNA. RNA from a subconfluent EC cultures (75 cm^2 Petri-dishes) incubated with bFGF for different time-points was isolated using an RNA-zol kit (Campro Scientific, Houston, Tex.). Total RNA (10 μg) for each sample was separated in a 0.8% formaldehyde-denaturing gel, transferred to nitrocellulose (Hybond N+, Amersham International, Amersham, UK) and hybridized to a ^32P-labelled 1.9 Kb c-DNA probe, containing the functional sequence of the human ICAM-1 gene (a gift from Dr. B. Seed). Membranes were washed at a high stringency in 0.2×SSC, 0.1% SDS at 50° C. for 1 hour. Filters were exposed to X-ray films (Kodak X-omat, Eastman Kodak Company, Rochester, N.Y.) using an intensifying screen at −80° C. for not less than 12 hr. Autoradiograms were subjected to scanning using a laser densitometer (Model GS670, Bio-Rad, Hercules, Calif.) and data were analysed with the Molecular Analyst PC™ software. The intensity of the major ICAM-1 mRNA transcript was normalized with respect to actin mRNA expression used as a control.

EC (endothelial cells) = assay: EC proliferation, 3[H]thymidine incorporation assay; assay type: cell-based
Method: as §1
EC proliferation was measured using a ^3[H]thymidine incorporation assay. EC were seeded in flatbottomed 96-well tissue culture plates (5000 cells/well) and grown for 3 days, in culture medium. In some cultures the proliferation of EC was enhanced by incubation with 10 ng/ml bFGF. During the list 6 hours of the assay, the culture was pulsed with 0.5 μCi [methyl-^3H]thymidine/well. Results are expressed as the arithmetic mean counts per minute (cpm) of triplicate cultures.

[2] = system: endotoxin from E. coli 055:B5; assay: Limulus amoebocyte lysate assay (E-TOXATE), endotoxin neutralization; assay type: biochemical; settings: Table 4; for Endotoxin Neutralization, % neutralization: 5.0 × 10^−6 M Peptide, 0.02 U (0.2 pg) endotoxin from E. coli 055:B5
Method: The peptides were tested for their ability to neutralize endotoxin. Quantitative endotoxin activities for these peptides were measured by Limulus amoebocyte lysate assay.
Limulus amoebocyte lysate assay: The ability of synthetic peptides to neutralize endotoxin was detected with the E-TOXATE kit manufactured by Sigma Chemicals (St. Louis, Mo.). […] Peptide or B/PI was incubated with LPS at room temperature for 5 min in 100 ul of a 1:2 dilution of pyrogen-free saline (pH 6.4). The reaction was started by addition of 100 ul of amoebocyte lysate and the final volume was 200 ul. Assuming a 10,000 molecular weight for LPS, the approximate molar ration of B/PI:LPS at neutralization was 3000 to 1.
The peptides were tested according to the method provided above. […] BG38L was used as a positive control in these experiments.

P. aeruginosa = assay: Bactericidal activity assay; assay type: cell-based, Pseudomonas aeruginosa type 1; settings: for Bactericidal Activity, % killing: 1.2 × 10^−7 M Peptide, 5 × 105 P. aeruginosa; for Bactericidal Activity, % killing at the effective dose: at the Ed for the same peptide; for Bactericidal Activity, Ed, Effective M dose: dose at which the % in brackets was found
Text: Bacteria: P. aeruginosa type 1 is a clinical isolate maintained in the laboratory. The isolate remains a smooth strain and was serotyped by the scheme of Homma. The Pseudomonas strain was maintained by monthly transfer on blood agar plates.
The peptides can be assayed for bactericidal activity against a variety of organisms such as Pseudomonas aeruginosa type 1, P. cepacia ATCC 25608, E. coli B, and Staphylococcus aureus 502A by standard methods.
Pseudomonas aeruginosa type 1 is a clinical isolate. The isolate remains a smooth strain and was serotyped by the scheme of Homma (Jpn. J. Exp. Med. 46:329, 1976). A rough strain, E. coli B and S. aureus 502A were obtained from Paul Quie, University of Minnesota (Minneapolis, Minn.). The characteristics of the S. aureus strain have been described by Shinefield et al. (Amer. J. Dis. Chil. 105:646, 1963). Pseudomonas cepacia ATCC 25608 can be purchased from the ATCC. S. aureus and E. coli were maintained on nutrient agar plates and the Pseudomonas strains were maintained on blood agar plates.
Pyrogen-free solutions were used throughout the assay and all methods that follow. Log phase bacteria were prepared from a culture in brain heart infusion broth (Hovde et al. Infect. Immun. 54:142–148, 1986) and bacteria were washed and resuspended in saline with adjustment to an optical density at 650 nm to provide a yield of about 3×10^8 CFU/ml. Bacteria were diluted 1:10 in 0.08M citrate phosphate buffer, pH 5.6 or pH 7.0, for use in the assay. S. aureus rapidly lost viability in the pH 5.6 buffer and was studied only at pH 7.0. Bactericidal activity was determined by dose response over peptide concentrations ranging from about […] to about 4.1×10^−9M. Bactericidal activity was determined by dose response, preferably determining LD50 by linear regression.

[3] = expt 2 (first, r11), 1 μg/ml, 10 ng/ml bFGF, medium 29079 ± 2506
[4] = expt 2 (first, r11), 1 μg/ml, no bFGF, medium 14296 ± 2490
[5] = expt 2 (first, r11), 10 μg/ml, 10 ng/ml bFGF, medium 29079 ± 2506
[6] = expt 2 (first, r11), 10 μg/ml, no bFGF, medium 14296 ± 2490
[7] = expt 2 (first, r11), 100 μg/ml, 10 ng/ml bFGF, medium 29079 ± 2506
[8] = expt 2 (first, r11), 100 μg/ml, no bFGF, medium 14296 ± 2490
[9] = expt 2 (second, r19), 1 μg/ml, 10 ng/ml bFGF, medium 52808 ± 4092
[10] = expt 2 (second, r19), 1 μg/ml, no bFGF, medium 6780 ± 713
[11] = expt 2 (second, r19), 10 μg/ml, 10 ng/ml bFGF, medium 52808 ± 4092
[12] = expt 2 (second, r19), 10 μg/ml, no bFGF, medium 6780 ± 713
[13] = expt 2 (second, r19), 100 μg/ml, 10 ng/ml bFGF, medium 52808 ± 4092
[14] = expt 2 (second, r19), 100 μg/ml, no bFGF, medium 6780 ± 713

Compound	bFGF mediated downregulation of ICAM-1 (in words) (ICAM-1)	EC proliferation in vitro (in words) (EC (endothelial cells))	(3H)-thymidine incorporation (EC (endothelial cells); [3]) [cpm]	(3H)-thymidine incorporation (EC (endothelial cells); [4]) [cpm]	(3H)-thymidine incorporation (EC (endothelial cells); [5]) [cpm]	(3H)-thymidine incorporation (EC (endothelial cells); [6]) [cpm]	(3H)-thymidine incorporation (EC (endothelial cells); [7]) [cpm]	(3H)-thymidine incorporation (EC (endothelial cells); [8]) [cpm]	(3H)-thymidine incorporation (EC (endothelial cells); [9]) [cpm]	(3H)-thymidine incorporation (EC (endothelial cells); [10]) [cpm]	(3H)-thymidine incorporation (EC (endothelial cells); [11]) [cpm]	(3H)-thymidine incorporation (EC (endothelial cells); [12]) [cpm]	(3H)-thymidine incorporation (EC (endothelial cells); [13]) [cpm]	(3H)-thymidine incorporation (EC (endothelial cells); [14]) [cpm]	Endotoxin Neutralization, % neutralization [2]	Bactericidal Activity, % killing (P. aeruginosa) [%]	Bactericidal Activity, % killing at the effective dose (P. aeruginosa) [%]	Bactericidal Activity, Ed, Effective M dose (P. aeruginosa) [nM]	effect of other inhibitors of angiogenesis on ICAM-1 expression (in words) (ICAM-1)	other results
SIQFLKVSLNLDRKQAKWKIIVKLNDGRELSLD [βpep-24]																				control of endothelial cell proliferation (in words) [1]: very good at controlling cell proliferation; effectiveness at decreasing endothelial cell growth ([1]; 0.26 micromolar): about 30%
SIQDLNVSMKLFRKQAKWKIIAKLNDGRELSLD [βpep-16]	complete block of bFGF mediated downregulation	angiostatic	35447 ± 2621	15039 ± 2020	33663 ± 2572	11881 ± 2545	7852 ± 875	4929 ± 749	47727 ± 447	7450 ± 737	44919 ± 2081	6148 ± 1370	27071 ± 3277	2669 ± 370	100%	0	24.3	960		Endotoxin Neutralization, % at the effective dose ([2]; at the Ed): 16.5%; Endotoxin Neutralization, Ed, Effective M dose ([2]; dose at which the % in brackets was found): 1.2 µM
thrombospondin-1 [TSP-1]																			same results	(3H)-thymidine incorporation (EC (endothelial cells); expt 4, 10 μg/ml, 10 ng/ml bFGF, medium 31954 ± 1220): 22338 ± 860 cpm; (3H)-thymidine incorporation (EC (endothelial cells); expt 4, 10 μg/ml, no bFGF, medium 18904 ± 1501): 8865 ± 639 cpm; (3H)-thymidine incorporation (EC (endothelial cells); expt 4, 25 μg/ml, 10 ng/ml bFGF, medium 31954 ± 1220): 10267 ± 797 cpm; (3H)-thymidine incorporation (EC (endothelial cells); expt 4, 25 μg/ml, no bFGF, medium 18904 ± 1501): 5565 ± 349 cpm
interferon-γ inducible protein-10 [IP-10]																			same results	(3H)-thymidine incorporation (EC (endothelial cells); expt 3, 100 μg/ml, 10 ng/ml bFGF, medium 3432 ± 232): 725 ± 95 cpm
O=C1CCC(N2C(=O)c3ccccc3C2=O)C(=O)N1 (stereo not shown) [thalidomide, reference compound]																			did not affect ICAM-1 expression	EC growth in vitro (in words) (EC (endothelial cells)): do not affect EC growth in vitro
SIQDLNVSMKLFRKQAKWKLIVKLNDGRELSLD [βpep-14]	complete block of bFGF mediated downregulation	angiostatic	28695 ± 1062	14184 ± 1775	29530 ± 1608	9886 ± 2114	6585 ± 132	3774 ± 299	48443 ± 2700	7214 ± 1668	52126 ± 1258	6074 ± 899	7663 ± 715	1062 ± 325	38.8 n = 1%	0	39.9	960		
